Calls of active or inactive are those of the source. No cut-off for these calls is given here.

Drawing on ChEMBL document CHEMBL1649454, “Genetic analysis of colistin resistance in Salmonella enterica serovar Typhimurium” (2009), this text covers MIC and Activity for four compounds.

Assay [1] relates to Salmonella typhimurium. Briefly: Antimicrobial activity against Salmonella enterica serovar Typhimurium LT2 DA6192 grown in liquid culture. The class given is functional.
For assay [2], the system named is Salmonella typhimurium. As to the kind of experiment: Antimicrobial activity against Salmonella enterica serovar Typhimurium LT2 DA10826 harboring pmrA (GGG to GAG, G53E mutant) grown in liquid culture. The class given is functional.
The test system of assay [3] is Salmonella typhimurium. As to the kind of experiment: Antimicrobial activity against Salmonella enterica serovar Typhimurium LT2 DA10833 harboring pmrB (GAA to AAA, E161K mutant) grown in liquid culture. The class given is functional.
The test system of assay [4] is Salmonella typhimurium. Briefly: Antimicrobial activity against Salmonella enterica serovar Typhimurium LT2 DA10840 harboring pmrA (CGC to CAC, R81H mutant) grown in liquid culture. The class given is functional.
Assay [5] deals with Salmonella typhimurium. As to the kind of experiment: Antimicrobial activity against Salmonella enterica serovar Typhimurium LT2 DA10845 harboring pmrB (ATG to ATA, M186I mutant) grown in liquid culture. The class given is functional.
Assay [6] concerns Salmonella typhimurium. Briefly: Antimicrobial activity against Salmonella enterica serovar Typhimurium LT2 DA6192 by Etest method. Conditions: Salmonella enterica subsp. enterica serovar Typhimurium str. LT2. The class given is functional, organism-based.
Assay [7] relates to Salmonella typhimurium. As to the kind of experiment: Antimicrobial activity against Salmonella enterica serovar Typhimurium LT2 DA10844 harboring pmrA (GGG to AGG, G15R mutant) by Etest method. Conditions: Salmonella enterica subsp. enterica serovar Typhimurium str. LT2. The class given is functional, organism-based.
Assay [8] concerns Salmonella typhimurium. As to the kind of experiment: Antimicrobial activity against Salmonella enterica serovar Typhimurium LT2 DA10826 harboring pmrA (GGG to GAG, G53E mutant)by Etest method. The class given is functional, organism-based. Particulars: Salmonella enterica subsp. enterica serovar Typhimurium str. LT2.
Assay [9] has as its system Salmonella typhimurium. As to the kind of experiment: Antimicrobial activity against Salmonella enterica serovar Typhimurium LT2 DA10850 harboring pmrA (GGG to AGG, G53R mutant) by Etest method. The class given is functional, organism-based. Conditions: Salmonella enterica subsp. enterica serovar Typhimurium str. LT2.
Assay [10] relates to Salmonella typhimurium. As to the kind of experiment: Antimicrobial activity against Salmonella enterica serovar Typhimurium LT2 DA10857 harboring pmrA (CGC to TGC, R81C mutant) by Etest method. The class given is functional, organism-based. Conditions: Salmonella enterica subsp. enterica serovar Typhimurium str. LT2.
The subject of assay [11] is Salmonella typhimurium. Briefly: Antimicrobial activity against Salmonella enterica serovar Typhimurium LT2 DA10840 harboring pmrA (CGC to CAC, R81H mutant) by Etest method. The class given is functional, organism-based. Conditions: Salmonella enterica subsp. enterica serovar Typhimurium str. LT2.
For assay [12], the system named is Salmonella typhimurium. As to the kind of experiment: Antimicrobial activity against Salmonella enterica serovar Typhimurium LT2 DA10829 harboring pmrB (AGT to AGA, S29R mutant) by Etest method. The class given is functional, organism-based. Particulars: Salmonella enterica subsp. enterica serovar Typhimurium str. LT2.
The subject of assay [13] is Salmonella typhimurium. As to the kind of experiment: Antimicrobial activity against Salmonella enterica serovar Typhimurium LT2 DA10832 harboring pmrB (ACC to GCC, T92A mutant) by Etest method. The class given is functional, organism-based. Conditions: Salmonella enterica subsp. enterica serovar Typhimurium str. LT2.
In assay [14] the test system is Salmonella typhimurium. As to the kind of experiment: Antimicrobial activity against Salmonella enterica serovar Typhimurium LT2 DA10837 harboring pmrB (CCG to CAG, P94Q mutant) by Etest method. The class given is functional, organism-based. Conditions: Salmonella enterica subsp. enterica serovar Typhimurium str. LT2.
Assay [15] relates to Salmonella typhimurium. Briefly: Antimicrobial activity against Salmonella enterica serovar Typhimurium LT2 DA10862 harboring pmrB (GAG to GCG, E21A mutant) by Etest method. Particulars: Salmonella enterica subsp. enterica serovar Typhimurium str. LT2. The class given is functional, organism-based.
The subject of assay [16] is Salmonella typhimurium. Briefly: Antimicrobial activity against Salmonella enterica serovar Typhimurium LT2 DA10839 harboring pmrB (TCC to CCC, S124P mutant) by Etest method. The class given is functional, organism-based. Particulars: Salmonella enterica subsp. enterica serovar Typhimurium str. LT2.
The test system of assay [17] is Salmonella typhimurium. Briefly: Antimicrobial activity against Salmonella enterica serovar Typhimurium LT2 DA10853 pmrB AAT to TAT and N130Y mutant by Etest method. The class given is functional, organism-based. Particulars: Salmonella enterica subsp. enterica serovar Typhimurium str. LT2.
Assay [18] concerns Salmonella typhimurium. As to the kind of experiment: Antimicrobial activity against Salmonella enterica serovar Typhimurium LT2 DA10874 harboring pmrB ACC to CCC, T147P mutant) by Etest method. The class given is functional, organism-based. Particulars: Salmonella enterica subsp. enterica serovar Typhimurium str. LT2.
The subject of assay [19] is Salmonella typhimurium. Briefly: Antimicrobial activity against Salmonella enterica serovar Typhimurium LT2 DA10848 harboring pmrB (ACG to CCG, T156P mutant) by Etest method. The class given is functional, organism-based. Conditions: Salmonella enterica subsp. enterica serovar Typhimurium str. LT2.
In assay [20] the test system is Salmonella typhimurium. Briefly: Antimicrobial activity against Salmonella enterica serovar Typhimurium LT2 DA10856 harboring pmrB (GTG to ATG, V161M mutant) by Etest method. The class given is functional, organism-based. Particulars: Salmonella enterica subsp. enterica serovar Typhimurium str. LT2.
For assay [21], the system named is Salmonella typhimurium. Briefly: Antimicrobial activity against Salmonella enterica serovar Typhimurium LT2 DA10835 harboring (pmrB GTG to CTG, V161L mutant) by Etest method. The class given is functional, organism-based. Conditions: Salmonella enterica subsp. enterica serovar Typhimurium str. LT2.
In assay [22] the test system is Salmonella typhimurium. As to the kind of experiment: Antimicrobial activity against Salmonella enterica serovar Typhimurium LT2 DA10859 harboring pmrB (GTG to GGG, V161G mutant) by Etest method. The class given is functional, organism-based. Conditions: Salmonella enterica subsp. enterica serovar Typhimurium str. LT2.
The test system of assay [23] is Salmonella typhimurium. As to the kind of experiment: Antimicrobial activity against Salmonella enterica serovar Typhimurium LT2 DA10833 harboring pmrB (GAA to AAA, E161K mutant) by Etest method. Conditions: Salmonella enterica subsp. enterica serovar Typhimurium str. LT2. The class given is functional, organism-based.
Assay [24] deals with Salmonella typhimurium. Briefly: Antimicrobial activity against Salmonella enterica serovar Typhimurium LT2 DA10845 harboring pmrB (ATG to ATA, M186I mutant) by Etest method. Particulars: Salmonella enterica subsp. enterica serovar Typhimurium str. LT2. The class given is functional, organism-based.
Assay [25] concerns Salmonella typhimurium. Briefly: Antimicrobial activity against Salmonella enterica serovar Typhimurium LT2 DA10863 harboring pmrB (GGG to TGG, G206W mutant) by Etest method. The class given is functional, organism-based. Conditions: Salmonella enterica subsp. enterica serovar Typhimurium str. LT2.
Assay [26] concerns Salmonella typhimurium. Briefly: Antimicrobial activity against Salmonella enterica serovar Typhimurium LT2 DA10875 harboring pmrB (GGG to AGG, G206R mutant) by Etest method. The class given is functional, organism-based. Conditions: Salmonella enterica subsp. enterica serovar Typhimurium str. LT2.
In assay [27] the test system is Salmonella typhimurium. Briefly: Antimicrobial activity against Salmonella enterica serovar Typhimurium LT2 DA10831 harboring pmrB (AGC to CGC, S305R mutant) by Etest method. Particulars: Salmonella enterica subsp. enterica serovar Typhimurium str. LT2. The class given is functional, organism-based.
In assay [28] the test system is Salmonella typhimurium. As to the kind of experiment: Antimicrobial activity against Salmonella enterica serovar Typhimurium LT2 DA10864 harboring pmrB (AGC to AGA, S305R mutant) by Etest method. The class given is functional, organism-based. Particulars: Salmonella enterica subsp. enterica serovar Typhimurium str. LT2.
The subject of assay [29] is Salmonella typhimurium. As to the kind of experiment: Bactericidal activity against Salmonella enterica serovar Typhimurium LT2 DA6192 at 1 mg/L after 30 mins by time kill study. Particulars: Salmonella enterica subsp. enterica serovar Typhimurium str. LT2. The class given is functional, organism-based.
In assay [30] the test system is Salmonella typhimurium. Briefly: Bactericidal activity against Salmonella enterica serovar Typhimurium LT2 DA10829 harboring pmrB S29R mutant at 16 mg/L after 30 mins by time kill study. The class given is functional, organism-based. Conditions: Salmonella enterica subsp. enterica serovar Typhimurium str. LT2.
In assay [31] the test system is Salmonella typhimurium. As to the kind of experiment: Bactericidal activity against Salmonella enterica serovar Typhimurium LT2 DA10845 harboring pmrB M186I mutant at 16 mg/L after 30 mins by time kill study. Particulars: Salmonella enterica subsp. enterica serovar Typhimurium str. LT2. The class given is functional, organism-based.
For assay [32], the system named is Salmonella typhimurium. Briefly: Bactericidal activity against Salmonella enterica serovar Typhimurium LT2 DA10840 harboring pmrA R81H mutant at 16 mg/L after 30 mins by time kill study. The class given is functional, organism-based. Particulars: Salmonella enterica subsp. enterica serovar Typhimurium str. LT2.
Assay [33] concerns Salmonella typhimurium. As to the kind of experiment: Bactericidal activity against Salmonella enterica serovar Typhimurium LT2 DA10829 harboring pmrB S29R mutant at 16 mg/L after 240 mins by time kill study. The class given is functional, organism-based. Conditions: Salmonella enterica subsp. enterica serovar Typhimurium str. LT2.
Assay [34] relates to Salmonella typhimurium. Briefly: Bactericidal activity against Salmonella enterica serovar Typhimurium LT2 DA10845 harboring pmrB M186I mutant at 16 mg/L after 240 mins by time kill study. The class given is functional, organism-based. Particulars: Salmonella enterica subsp. enterica serovar Typhimurium str. LT2.
For assay [35], the system named is Salmonella typhimurium. As to the kind of experiment: Bactericidal activity against Salmonella enterica serovar Typhimurium LT2 DA10840 harboring pmrA R81H mutant at 16 mg/L after 240 mins by time kill study. Particulars: Salmonella enterica subsp. enterica serovar Typhimurium str. LT2. The class given is functional, organism-based.
The mark [36] stands for this setting: Salmonella enterica subsp. enterica serovar Typhimurium str. LT2.

By MIC is commonly meant the lowest concentration found to suppress growth. A lower MIC goes with inhibition by little substance. As to “H-RRRPRPPYLPRPRPPPFFPPRLPPRIPPGFPPRFPPRFP-NH2”, the MIC in the assay with Salmonella typhimurium [1], against Salmonella typhimurium [2], in the assay on Salmonella typhimurium [3], against Salmonella typhimurium [4] and against Salmonella typhimurium [5] was 3 µM in each case.

Turning to COLISTIN, the MIC turned out to be 0.125 µg/mL with Salmonella typhimurium [6]; 2.7 µg/mL against Salmonella typhimurium [7]; 3 µg/mL in the assay on Salmonella typhimurium [8]; 3 µg/mL against Salmonella typhimurium [9]; 4 µg/mL in the assay with Salmonella typhimurium [10]; 3 µg/mL in the assay on Salmonella typhimurium [11]. The MIC was found to be 0.5 µg/mL in the assay on Salmonella typhimurium [12]; 0.25 µg/mL with Salmonella typhimurium [13]; 2.5 µg/mL against Salmonella typhimurium [14]; 4 µg/mL with Salmonella typhimurium [15]; 2.3 µg/mL in the assay with Salmonella typhimurium [16]; 2 µg/mL with Salmonella typhimurium [17]. Moreover, the MIC with Salmonella typhimurium [18] came to 2.5 µg/mL; against Salmonella typhimurium [19] it was 4.4 µg/mL; in the assay with Salmonella typhimurium [20], 4 µg/mL; against Salmonella typhimurium [21] it was 2 µg/mL; in the assay with Salmonella typhimurium [22], 3 µg/mL; in the assay on Salmonella typhimurium [23] it was 3 µg/mL. The MIC against Salmonella typhimurium [24] is 2.8 µg/mL; in the assay on Salmonella typhimurium [25] it was 2 µg/mL; in the assay on Salmonella typhimurium [26] it was 2 µg/mL; against Salmonella typhimurium [27], 2.7 µg/mL; in the assay on Salmonella typhimurium [28] it was 2.7 µg/mL. The result in the assay with Salmonella typhimurium [29], with Salmonella typhimurium [30], in the assay on Salmonella typhimurium [31], in the assay with Salmonella typhimurium [32], in the assay on Salmonella typhimurium [33] and in the assay on Salmonella typhimurium [34] was Active. The outcome in the assay on Salmonella typhimurium [35] was Active.

Turning to `CC[C@H](C)[C@H](NC(=O)[C@H](CCCCN)NC(=O)[C@H](CCC(=O)O)NC(=O)[C@H](CCCCN)NC(=O)[C@H](CO)NC(=O)[C@H](CCCCN)NC(=O)[C@H](CCCNC(=N)N)NC(=O)[C@H](Cc1ccccc1)NC(=O)[C@H](Cc1ccccc1)NC(=O)[C@H](CC(=O)O)NC(=O)CNC(=O)[C@H](CC(C)C)NC(=O)[C@@H](N)CC(C)C)C(=O)NCC(=O)N[C@@H](CCCCN)C(=O)N[C@@H](CCC(=O)O)C(=O)N[C@@H](Cc1ccccc1)C(=O)N[C@@H](CCCCN)C(=O)N[C@@H](CCCNC(=N)N)C(=O)N[C@H](C(=O)N[C@H](C(=O)N[C@@H](CCC(N)=O)C(=O)N[C@@H](CCCNC(=N)N)C(=O)N[C@H](C(=O)N[C@@H](CCCCN)C(=O)N[C@@H](CC(=O)O)C(=O)N[C@@H](Cc1ccccc1)C(=O)N[C@@H](CC(C)C)C(=O)N[C@@H](CCCNC(=N)N)C(=O)N[C@@H](CC(N)=O)C(=O)N[C@@H](CC(C)C)C(=O)N[C@H](C(=O)N1CCC[C@H]1C(=O)N[C@@H](CCCNC(=N)N)C(=O)N[C@H](C(=O)N[C@@H](CCC(=O)O)C(=O)N[C@@H](CO)C(=O)O)[C@@H](C)O)C(C)C)[C@@H](C)CC)C(C)C)[C@@H](C)CC` [CATHELICIDIN], the MIC in the assay on Salmonella typhimurium [1] came out at 15 µM; in the assay with Salmonella typhimurium [2] it was 25 µM; against Salmonella typhimurium [3], 25 µM; with Salmonella typhimurium [4], 25 µM; in the assay on Salmonella typhimurium [5], 25 µM.

BLEOMYCIN: the MIC in the assay on Salmonella typhimurium [1] (setting [36]), in the assay on Salmonella typhimurium [2] (setting [36]), against Salmonella typhimurium [3] (setting [36]), in the assay on Salmonella typhimurium [4] (setting [36]) and with Salmonella typhimurium [5] (setting [36]) was 0.19 µg/mL each time.
